The text below walks through data of patent publication US9101564B2, “Heparanase activity inhibitor, wrinkle improving agent containing same, and pharmaceutical composition” (Shiseido Company, Ltd., priority 2009, dated 2015).

The target in the assay is T1, heparanase (Homo sapiens, UniProt Q9Y251).
T1 construct: the supernatant was recovered as cell extract; endogenous in cells; host or cells: A431 (human epithelial carcinoma cells), Triton X-100 lysate
T1 sequence (Q9Y251 158-543 limits assumed): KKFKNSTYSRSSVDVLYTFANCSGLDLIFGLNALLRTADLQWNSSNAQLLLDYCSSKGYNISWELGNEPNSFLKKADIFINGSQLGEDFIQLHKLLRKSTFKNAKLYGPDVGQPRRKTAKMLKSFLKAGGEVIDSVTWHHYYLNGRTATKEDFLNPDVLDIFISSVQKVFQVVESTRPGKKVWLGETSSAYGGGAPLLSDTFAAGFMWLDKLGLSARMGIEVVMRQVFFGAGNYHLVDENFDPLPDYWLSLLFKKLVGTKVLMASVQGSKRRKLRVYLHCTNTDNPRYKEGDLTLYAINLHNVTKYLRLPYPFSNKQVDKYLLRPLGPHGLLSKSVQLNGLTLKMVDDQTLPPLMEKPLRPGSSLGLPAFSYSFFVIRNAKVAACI
T1 sequence (Q9Y251 36-109 limits assumed): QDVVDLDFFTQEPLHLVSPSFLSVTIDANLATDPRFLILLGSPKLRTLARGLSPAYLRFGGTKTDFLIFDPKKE
In words: Heparanase activity inhibition rate, A431 cell extract on biotinylated heparan sulfate-immobilized plate. Particulars: A431 cell extract 500 μg/mL, 37° C., 2 hours, DMSO 5%. In kind it is biochemical. As to the method:
A431 cells (human epithelial carcinoma cells) were cultured in 10% serum-containing DMEM (Dulbecco's modified Eagle medium). The cultured cells were solubilized in lysis buffer (50 mM Tris, 0.5% TritonX-100, 0.15 M sodium chloride, pH 4.5) and collected with a scraper, and then pipetted and allowed to stand on ice for 30 minutes. This was followed by centrifugation at 10,000 rpm for 10 minutes to remove the insoluble portion, and the supernatant was recovered as cell extract. The amount of protein in the cell extract was measured with a BCA protein assay kit (BCA Protein Assay Kit, PIERCE, Calif. 46141).
The A431 cell extract was then diluted to 500 μg/mL with assay buffer (50 mM HEPES, 50 mM sodium acetate, 150 mM sodium chloride, 9 mM calcium chloride, 0.1% BSA). Next, the test compound was dissolved in DMSO and added to the diluted cell extract in proportions of 0.0005 mass %, 0.005 mass % and 0.05 mass %, and these were mixed to prepare sample solutions (DMSO final concentration: 5%). A control solution was prepared by mixing DMSO with the diluted cell extract to a final concentration of 5%. The sample solution and control solution were each seeded in a biotinylated heparan sulfate-immobilized plate at 100 μL/well. […] After further rinsing 3 times with PBS-T, TMB reagent (BIO-RAD, 172-1066) was added at 100 μL/well and reacted therewith, the reaction was terminated with 1N sulfuric acid, and the absorbance at 475 nm (OD475) was measured.
Also, DMSO was added to a serial diluent prepared with the aforementioned A431 cell extract assay buffer (cell extract concentrations: 500 μg/mL, 50 μg/mL, 5 μg/mL, 0.5 μg/mL), to a final concentration of 5% without addition of the test compound, to obtain a mixture (solution for calibration curve). The solution for the calibration curve was subjected to treatment by the same procedure described above, from seeding of the biotinylated heparan sulfate-immobilized plate, and the OD475 was measured. […]

As to `CC(C)Cc1ccc(O)cc1O` [4-Isobutylresorcinol, 4-isobutylresorcinol], the “Heparanase activity inhibition rate” value is 37.64% (added concentration 0.0005 mass %), 75.98% (added concentration 0.005 mass %) and 94.74% (added concentration 0.05 mass %).
